# Earlier results as cited in patent US20250099444A1, “Methods of Treating a Subject for Long-Haul COVID-19, and Compositions for Use in the Same” (IncellDx, Inc., priority 2022, published 2025).
# Tested on: R5-tropic HIV-1
compound,measurement,setting,value
"Cc1nnc(C(C)C)n1[C@@H]1C[C@H]2CC[C@@H](C1)N2CC[C@H](NC(=O)C1CCC(F)(F)CC1)c1ccccc1 [maraviroc, 4,4-difluoro-N-[(1S)-3-[(1S,5R)-3-(3-methyl-5-propan-2-yl-1,2,4-triazol-4-yl)-8-azabicyclo[3.2.1]octan-8-yl]-1-phenylpropyl]cyclohexane-1-carboxamide]",incidence of hepatoxicity (MOTIVATE study),96 weeks of treatment at 300 mg B.I.D,low incidence of hepatoxicity
same,"death and other health threats, long-term follow-up of MOTIVATE trials",">5 year follow-up, HIV patients",limited instances of death and other health threats such as hepatic failure and myocardial infarctions
same,HIV viral loads (MOTIVATE 1 and MOTIVATE 2),individuals with R5-tropic HIV-1,lower levels of HIV viral loads
